Measured values taken from patent US11707456B2, “Processes for preparing arimoclomol citrate and intermediates thereof” (KemPharm Denmark A/S, priority 2020, dated 2023).

Assays:
[1] = Stability of ORZY-04 on drying at 45° C. in vacuum; format: physicochemical; details: after 168 h of drying at 45° C. in vacuum
Experimental: A citric acid solution was prepared by charging citric acid (15.01 g, […]) and MeOH (100 mL) in a separate container and stirring for 5 min. at 20° C. The citric acid solution was then charged to the container containing the reaction solution, and the mixture was cooled to 0° C. and stirred for at least 12 h at 0° C. ORZY-04 was then isolated by filtration of the obtained suspension, and washed with MeOH (40 mL). Finally, the solids were dried at 45° C. in vacuum. Results

[2] = design: species or system human; details: in vivo, po
Excerpt: The stability permits that the permeability of arimoclomol is high based on urinary recovery in human mass balance trial.

stability on drying [1]	drug-related material recovered in faeces [2]	SMILES
stable	–	[O-][n+]1cccc(/C(Cl)=N/OC[C@H](O)CN2CCCCC2)c1 [ORZY-04]
–	12%	[O-][n+]1cccc(C(Cl)=NOC[C@H](O)CN2CCCCC2)c1 [arimoclomol, N-{[(2R)-2-hydroxy-3-piperidin-1-ylpropyl]oxy}pyridine-3-carboximidoyl chloride 1-oxide]
